Data taken from patent publication US5753709A, “N-acyl-2 aryl cyclopropylmethylamine derivatives as melatonergics” (Bristol-Myers Squibb Company, priority 1996, dated 1998).

Target: T1, human melatonin receptor (human ML1A) (Homo sapiens, UniProt P48039)
T1 construct: expressed in transfected cells; host or cells: COS-1 cells (transient, pcDNAI, DEAE-dextran); membrane homogenates
T1 sequence (P48039 whole entry): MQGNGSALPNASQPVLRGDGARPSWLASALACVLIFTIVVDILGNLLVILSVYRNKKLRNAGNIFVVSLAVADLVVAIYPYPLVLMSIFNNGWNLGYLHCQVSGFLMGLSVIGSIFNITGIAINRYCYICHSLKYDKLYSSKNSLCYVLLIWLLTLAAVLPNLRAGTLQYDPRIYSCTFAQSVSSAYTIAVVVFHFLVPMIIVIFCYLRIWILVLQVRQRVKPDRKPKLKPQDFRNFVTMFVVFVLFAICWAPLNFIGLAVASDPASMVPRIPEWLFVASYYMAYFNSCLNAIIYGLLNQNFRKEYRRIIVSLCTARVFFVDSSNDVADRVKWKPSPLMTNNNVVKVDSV
Experiment: Melatonergic binding: displacement of 2-[125I]-iodomelatonin at the human melatonin receptor (human ML1A in COS-1 membranes)
Conditions: Table 5; displacement of 2[125I]-Iodomelatonin (100 pM), 37° C., 1 hour
Experimental: The melatonergic binding of the compounds of Formula I was determined by a modification of the method of Reppert, S. M. et al. (Neuron, Volume 13, pages 1177-1185, 1994). […] The reagents, membranes, and other parameters used in the assay are described below:
(a) 50 mM Tris buffer containing 12.5 mM MgCl2, and 2 mM EDTA (pH 7.4 at 37° C.).
(b) Wash buffer: 20 mM Tris base containing 2 mM MgCl2 (pH 7.4 at room temperature).
(c) 6-Chloromelatonin (10^-5 M final concentration).
(d) 2-[^125 I]-Iodomelatonin (100 pM final concentration). (Source: NEN) Membrane preparation: The cDNA (human ML1A) in pcDNAI was introduced into COS-1 cells by the DEAE-dextran method. Three days later, after media removal, the plates were washed with buffered saline; the cells removed using Hank's balanced salt solution and pelleted. The supernant was discarded and the pellets frozen. For membrane homogenates, the pellets were thawed and resuspended in TME buffer, Tris base, MgCl2, EDTA (pH 7.4 at 37° C.), and supplemented with aprotinin, leupeptin, and phenylmethylsulfonyl fluoride. The cells were homogenized and centrifuged; the resulting pellet resuspended in TME and frozen. At assay, the small aliquot was thawed on ice and resuspended in TME buffer. Incubation: 37° C. for 1 hour. Reaction is terminated by filtration.
For CCCC(=O)NC[C@@H]1C[C@H]1c1cccc(OCC=C(C)CCC=C(C)CCC=C(C)C)c1 (relative stereo) [Example 103, (trans)-N-[[2-[3-[(3-,7,11-Trimethyldodeca-2,6,10-trien-1-yl)oxy]phenyl]cycloprop-1-yl]methyl] butanamide], the IC50 was < 5 nM.
For C=CCCCOc1cccc([C@@H]2C[C@H]2CNC(=O)CCC)c1 (relative stereo) [Example 105], the IC50 was 5 to 40 nM.
With CCCC(=O)NC[C@@H]1C[C@H]1c1cccc(OCCC=C(C)C)c1 (relative stereo) [Example 106, (trans)-N-[[2-[3-(4-Methyl-3-penten-1-yloxy)phenyl]cycloprop-1-yl]methyl] butanamide] the IC50 was 5 to 40 nM.
With CCCC(=O)NC[C@@H]1C[C@H]1c1cccc(OCCCCC(C)(C)C#N)c1 (relative stereo) [Example 107] the IC50 was 40 to 250 nM.
CCCC(=O)NC[C@@H]1C[C@H]1c1cccc(OCCCC(=O)OC)c1 (relative stereo) [Example 108] showed an IC50 of 40 to 250 nM.
With CCCC(=O)NC[C@@H]1C[C@H]1c1cccc(OCCCCCc2ccccc2)c1 (relative stereo) [Example 110, (trans)-N-[[2-[3-[(5-Phenylpent-1-yl)oxy]phenyl]cycloprop-1-yl]methyl] butanamide] the IC50 was < 5 nM.
In the case of CCCC(=O)NC[C@@H]1C[C@H]1c1cccc(CC)c1 (relative stereo) [Example 114, (trans)-N-[2-[(3-Ethylphenyl)cycloprop-1-yl]methyl] butanamide], the IC50 is reported as 5 to 40 nM.
CCCC(=O)NC[C@@H]1C[C@H]1c1cccc(OCCCCC2CCCCC2)c1 (relative stereo) [Example 116] gave an IC50 of 5 to 40 nM.
With CCCC(=O)NC[C@@H]1C[C@H]1c1cccc(OCCCC2CCCC2)c1 (relative stereo) [Example 120, (trans)-N-[[2-[3-[(3-Cyclopentylprop-1-yl)oxy]phenyl]cycloprop-1-yl]methyl] butanamide] the IC50 was < 5 nM.
CCCC(=O)NC[C@@H]1C[C@H]1c1cccc(OCCC(C)CC(C)(C)C)c1 (relative stereo) [Example 121] showed an IC50 of 5 to 40 nM.
In the case of C#CC(C)=CCOc1cccc([C@@H]2C[C@H]2CNC(=O)CCC)c1 (relative stereo) [Example 122], the IC50 is reported as 5 to 40 nM.
In the case of CCCC(=O)NC[C@@H]1C[C@H]1c1cccc(OCCc2cccc(C(F)(F)F)c2)c1 (relative stereo) [Example 123, (trans)-N-[[2-[3-[2-[3-(Trifluoromethyl)phenyl]ethoxy]phenyl]cycloprop-1-yl]methyl] butanamide], the IC50 is reported as < 5 nM.
With CCCC(=O)NC[C@@H]1C[C@H]1c1cccc(OCCc2cccc(F)c2)c1 (relative stereo) [Example 125, (trans)-N-[[2-[3-[2-(3-Fluorophenyl)ethoxy]phenyl]cycloprop-1-yl]methyl] butanamide] the IC50 was 5 to 40 nM.
In the case of CCCC(=O)NC[C@@H]1C[C@H]1c1cccc(OCCCc2ccc(OC)cc2)c1 (relative stereo) [Example 127, (trans)-N-[[2-[3-[3-(4-Methoxyphenyl)propoxy]phenyl]cycloprop-1-yl]methyl]butanamide], the IC50 is reported as 5 to 40 nM.
For CCCC(=O)NC[C@@H]1C[C@H]1c1cccc(OCCc2ccccc2F)c1 (relative stereo) [Example 128, (trans)-N-[[2-[3-[2-(2-Fluorophenyl)ethoxy]phenyl]cycloprop-1-yl]methyl] butanamide], the IC50 was 5 to 40 nM.
With CC(C)C(=O)NC[C@@H]1C[C@H]1c1cccc(F)c1 (single isomer, unassigned) [Example 65, (-)-(trans)-N-[[2-(3-Fluorophenyl)cycloprop-1-yl]methyl]-2-methylpropanamide] the IC50 was 250 to 600 nM.
With CCCC(=O)NC[C@@H]1C[C@H]1c1cccc(OCCCc2cccc(OC)c2)c1 (single isomer, unassigned) [Example 84, (-)-(trans)-N-[[2-[3-[3-(3-Methoxyphenyl)propoxy]phenyl]cycloprop-1-yl)methyl] butanamide] the IC50 was < 5 nM.
CCCC(=O)NC[C@@H]1C[C@H]1c1ccccc1 (single isomer, unassigned) [Example 90, (-)-(trans)-N-[(2-Phenylcycloprop-1-yl)methyl] butanamide] showed an IC50 of 40 to 250 nM.
CCCC(=O)NC[C@@H]1C[C@H]1c1cc(OCCCc2cccc(OC)c2)ccc1I (single isomer, unassigned) [Example 93, (-)-(trans)-N-[[2-[2-Iodo-5-[3-(3-methoxyphenyl)propoxy]phenyl]cycloprop-1-yl)methyl] butanamide] gave an IC50 of 5 to 40 nM.

Same assay, conditions: Table 6; displacement of 2[125I]-Iodomelatonin (100 pM), 37° C., 1 hour
For COc1cccc([C@H]2[C@H](CNC(=O)C(C)C)C2(F)F)c1 (relative stereo) [Example 134, (trans)-N-[[3-(3-Methoxyphenyl)-2,2-difluoro--cycloprop-1-yl]methyl]-2-methylpropanamide], the IC50 was 40 to 250 nM.
With CCCC(=O)NCC[C@@H]1C[C@H]1c1cccc(OC)c1 (single isomer, unassigned) [Example 16, (-)-(trans)-N-[[2-(3-Methoxyphenyl)cyclopropyl]ethyl]butanamide] the IC50 was 250 to 600 nM.

Same assay, conditions: read-out: Binding affinity (IC50) at the human melatonin receptor; Table 5; displacement of 2[125I]-Iodomelatonin (100 pM), 37° C., 1 hour
For [2H]C([2H])([2H])Oc1cccc([C@@H]2C[C@H]2CNC(=O)CCC)c1 (relative stereo) [Example 111, (trans)-N-[2-[(3-Trideuteromethoxyphenyl)cycloprop-1-yl]methyl] butanamide], the IC50 was < 5 nM.

System: rats
Experiment: not given
Conditions: exogenous administration; cited from earlier work
In the case of COc1ccc2[nH]cc(CCNC(C)=O)c2c1 [melatonin, N-acetyl-5-methoxytryptamine], the “effect on circadian rhythms” value is listed as “found to synchronize circadian rhythms in rats”.
